Consider 4 compounds from ChEMBL document CHEMBL1201862, “PubChem BioAssay data set” (2004).

Some test systems named below: CAKI-1; EKVX; RXF 393; MCF7; HOP-92; LOX IMVI; NCI-H460; A549; HCC 2998; PC-3; OVCAR-5; SNB-75; U-251; M14; BT-549; SK-MEL-2; OVCAR-3; Hs-578T; HCT-15.
What all share (experiment): NCI tumour cell line growth inhibition, 48 h

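96-well plates; 48 h exposure; 5 concentrations. Endpoints by linear interpolation between flanking doses. Not reached: highest tested concentration assigned. Here, GI50 denotes the concentration required for 50% inhibition of growth.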 Calls of active or inactive are those of the source. No stated cut-off is given here; in the data, active = GI50 up to about 1.1 µM and inactive = higher.

For `COC1(OC)C(/C(N)=C\O)=NC(C)(C)N1O`, the GI50 is > 100 µM (inactive) in the assay with CAKI-1; > 100 µM (inactive) in the assay with EKVX; > 100 µM (inactive) in the assay with RXF 393; 74.6 µM (inactive) with MCF7; > 100 µM (inactive) with HOP-92; > 100 µM (inactive) with LOX IMVI. Further, the GI50 in the assay with NCI-H460 is > 100 µM (inactive); in the assay with A549, > 100 µM (inactive); in the assay on HCC 2998, > 100 µM (inactive); with PC-3, > 100 µM (inactive); in the assay with OVCAR-5, > 100 µM (inactive); in the assay with SNB-75, 66.2 µM (inactive). In addition, the GI50 with U-251 is > 100 µM (inactive); with M14 it was > 100 µM (inactive); in the assay with BT-549 it was > 100 µM (inactive); in the assay with SK-MEL-2 it was > 100 µM (inactive); in the assay with OVCAR-3 it was 29.9 µM (inactive).
On to `CC1(C)C(C#N)=[N+]([O-])C(C)(C)N1O`, for which the GI50 was > 100 µM (inactive) with CAKI-1; > 100 µM (inactive) in the assay with EKVX; > 100 µM (inactive) in the assay with RXF 393; 79.4 µM (inactive) in the assay on MCF7; > 100 µM (inactive) with HOP-92; > 100 µM (inactive) in the assay on Hs-578T. The GI50 was 77.3 µM (inactive) in the assay with LOX IMVI; > 100 µM (inactive) with NCI-H460; > 100 µM (inactive) in the assay on A549; > 100 µM (inactive) with HCC 2998; over 100 µM in the assay with HCT-15; > 100 µM (inactive) in the assay on PC-3. The GI50 in the assay with OVCAR-5, in the assay on SNB-75, in the assay on U-251, in the assay with M14, with SK-MEL-2 and with OVCAR-3 was > 100 µM (inactive) each time.
On to `COc1ccc(N[C@H](C[S+]([O-])c2ccc(C)cc2)C(F)(F)F)cc1` (stereo partly specified), for which the GI50 with CAKI-1, in the assay with EKVX, in the assay with RXF 393, in the assay on MCF7, with HOP-92 and in the assay on LOX IMVI was > 100 µM (inactive) each time. Further, the GI50 with NCI-H460 is > 100 µM (inactive); with A549 it was > 100 µM (inactive); with HCC 2998 it was > 100 µM (inactive); in the assay on HCT-15 it was over 100 µM; in the assay on PC-3, > 100 µM (inactive); in the assay on OVCAR-5 it was > 100 µM (inactive). For the same compound, the GI50 in the assay on SNB-75, in the assay with U-251, in the assay with M14, in the assay with BT-549, in the assay on SK-MEL-2 and in the assay on OVCAR-3 was > 100 µM (inactive) throughout.
`Nc1ncnc2c1ncn2C1CCC(COS(N)(=O)=O)C1` (stereo unspecified): the GI50 with CAKI-1 is > 100 µM (inactive); in the assay with EKVX, > 100 µM (inactive); in the assay on RXF 393 it was > 100 µM (inactive); in the assay on MCF7, 58.7 µM (inactive); in the assay with HOP-92, > 100 µM (inactive); in the assay with Hs-578T, 65.5 µM (inactive). In addition, the GI50 was 37 µM (inactive) in the assay with LOX IMVI; > 100 µM (inactive) in the assay with NCI-H460; > 100 µM (inactive) with A549; > 100 µM (inactive) with HCC 2998; over 100 µM in the assay with HCT-15; > 100 µM (inactive) in the assay with PC-3. Also, the GI50 in the assay with OVCAR-5 was > 100 µM (inactive); in the assay with SNB-75 it was 89.5 µM (inactive); in the assay with U-251, > 100 µM (inactive); with M14 it was > 100 µM (inactive); with SK-MEL-2, > 100 µM (inactive); in the assay with OVCAR-3, 80.7 µM (inactive).
